Measurements reported in paper PMC5865651, “Novel inhibitor candidates of TRPV2 prevent damage of dystrophic myocytes and ameliorate against dilated cardiomyopathy in a hamster model” (Oncotarget, 2018).

Assays:
[1] = test system: dystrophic myocytes from J2N-k hamsters; assay: Ca2+ response in cultured myocytes from dystrophic J2N-k hamsters; format: cell-based, hamster; conditions: compound 15 μM
J2N-k myocytes = assay: Stretch-induced CK release from J2N-k myocytes; format: cell-based, hamster; conditions: 30 μM, 30 min pretreatment, cyclic stretch 20% elongation 1 h
Description: Creatine phosphokinase (CK) activity in the medium was determined using an in vitro colorimetric assay kit (CK Test Kit; Wako Pure Chemical Industries, Ltd., Osaka, Japan) according to the manufacturer's protocol The cTN-I level in the serum was measured, while quantitative immunoblotting and immunocytochemistry were performed as previously described. Protein concentration was measured using the bicinchoninic acid assay (Pierce Chemical Co., Rockford, IL, USA) with bovine serum albumin as the standard. All histochemical and physiological analyses were performed by investigators blinded to the drug treatments. Unless otherwise stated, results are presented as the mean ± SD of at least 5 determinations. The unpaired Student's t-test and one-way ANOVA followed by Dunnett's test were used to analyse the data. Values of P < 0.05 (indicated as asterisks in the figures) were considered statistically significant. All cellular measurements were repeated at least 5 times. Representative data are shown.

Structure (SMILES) | effect on high extracellular Ca2+ (5 mM)-induced increase in [Ca2+]i [1] | effect on 2-APB-induced increase in [Ca2+]i ([1]; 2-APB 0.5 mM, CaCl2 5 mM, pH 6.5) | reduction of stretch-induced CK release (J2N-k myocytes)
CCN1C=CC(=CC=C(C=Cc2cc[n+](CC)c3ccccc23)c2cc[n+](CC)c3ccccc23)c2ccccc21.[I-].[I-] [lumin, 4,4′-[3-[2-[1-ethyl-4(1H)-quinolinylidene]ethylidene]-1-propene-1,3-diyl]bis(1-ethylquinolinium) diiodide] | inhibited | inhibited | –
COc1cc(/C=C(\C#N)C(=O)Nc2ccccc2C(=O)O)cc(Cl)c1OC [A3, 2-[(2E)-3-(3-Chloro-4,5-dimethoxyphenyl)-2-cyanoprop-2-enoylamino]benzoic acid] | – | – | up to 70%
